Test results from patent publication US20240325548A1, “DYNAMIC BIOACTIVE SCAFFOLDS AND THERAPEUTIC USES THEREOF AFTER CNS INJURY” (Northwestern University, priority 2021, published 2024).

How the values were obtained:
[1] = T2-NMR spin-spin relaxation rate of PA assemblies; assay type: physicochemical; settings: for relaxation rate 1H-R2 of methylene protons on ε carbon of K residue in IKVAV: T2-NMR, IKVAV PA library
Procedure: NMR spectra were acquired at 600 MHz on a Tecmag NMR spectrometer using a Doty diffusion probe with a sweep width of 6 kHz and 16k data points or at 600 MHz on a Brucker Neo system with QCI-F cryoprobe.
NMR spectra for IKVAV PAs were recorded at 25° C. using TFA-d, H2O/D2O in 9/1 ratio (D2O contains 0.05 wt. % 3-(trimethylsilyl) propionic-2,2,3,3-d4 acid, sodium salt) as solvents. Chemical shifts are reported in part per million (ppm). Structural assignment was performed using ^1H,^1H-gCOSY, ^1H,^13C-gHSCQAD, TOCSY and NOESY. Multiplicities are quoted as singlet (s), doublet (d), multiplets (m), doublet of doublets (dd), doublet of doublet of doublets (ddd), triplet (t), quartet (q). The […] and typical spectra required 32 scans. Additional scans (512) were required for accurate estimation of the aromatic signal intensity since the epitope containing aromatic protons was present at only 10 mol %.
The spin-spin relaxation rates were measured using the Carr-Purcell-Gill-Meiboom pulse sequence with a delay time of 0.2 ms in a variable loop. The peak intensity data was fit to and exponential in the form:
where τ is the length of the delay time, R2 is the spin-spin relaxation rate and b are the baseline.

[2] = Miscibility and hydrogel formation of IKVAV PA / FGF2 PA binary systems (cryo-TEM, rheology); assay type: physicochemical; settings: particularly at molar ratio 90:10
Procedure: For in vitro experiments: After lyophilization, PA powder was reconstituted in 150 mM NaCl and 3 mM KCl solution and adjusted to a pH of 7.4 using 1 μL additions of 1 M NaOH to ensure cell compatibility and material consistency. Different bioactive PAs were mixed at different mol % (see Table 3) and horn sonicated at 10% intensity, three times for 10 seconds. PA solutions were annealed at 80° C. for 30 min and then slowly cooled at 1° C. per minute to reach a final temperature of 27° C. using a thermocycler (Eppendorf PCR Thermocycler) for even and controlled heating and cooling of all samples. To prepare a PA coated substrate, 24-, 12-, or 6-well polystyrene cell culture plate or 12 mm and 18 mm glass coverslips (German Glass, Chemglass Life Science) were coated with poly-D-lysine (0.01 mg/mL, Sigma-Aldrich) for 3 h at 37° C. The plates were then rinsed with MilliQ water three times and allowed to dry for 4 h. PAs were painted on the coverslips or tissue culture plates by dragging a pipette (8-30 μL of annealed PAs (1 wt %)) to extrude a thin, even coating of material across the surface. PA coatings were incubated for 3 h at room temperature. The plates were gently rinsed with media before further use. For dye-labeled PAs experiments, Cy3-labeled-FGF2 PAs were co-assembled at 1 mol % with their corresponding non-labeled PA counterparts (see table 3).
Plunge-freezing for Cryo-TEM samples were prepared using a FEI model Vitrobot MarkIV (FEI). 7 μL of the sample solution ([PA]=0.05-0.1 wt % in H2O) was deposited on a plasma-cleaned TEM grid (300 mesh copper with lacey carbon, Electron Microscopy Sciences) and held in place with tweezers mounted on the Vitrobot. The specimen was blotted in an environment with 100% humidity at room temperature (blot force: 3, blot total: 1-2, wait time: 0.5-1 s, blot time: 3 s, drain time: 0-1 s), and plunged into a liquid ethane reservoir cooled by liquid nitrogen. The vitrified samples were stored in liquid nitrogen and then transferred to a Gatan 626 Cryo-TEM holder. Cryo-TEM images were obtained using a JEOL1230 electron microscope operating with a LaB6 filament at an accelerating voltage of 100 kV, equipped with a Gatan 831 CCD camera.
PA materials were prepared using the method described above for in vitro studies. An MCR302 Rheometer (Anton Paar) was used for all rheological studies. The instrument stage was set to 37° C. to simulate in vitro and in vivo conditions. The PA solution (150 μL) was placed on the sample stage and 30 μL of 25 mM CaCl2) solution was pipetted onto the underside of a 25 mm cone plate positioned above the material. […] The storage and loss modulus (G′ and G″) were recorded after a plateau occurred.

[3] = T2 relaxation of K residue of IKVAV PAs, no Ca2+

R2 [1, 3] [s⁻¹] | miscibility and hydrogel formation when mixed with FGF2 PA1 or FGF2 PA2 [2] | relaxation rate 1H-R2 of methylene protons on ε carbon of K residue in IKVAV [1] [s⁻¹] | R2 ([1]; T2 relaxation of K residue, +Ca2+) [s⁻¹] | Substance
11.2 ± 2.9 | immiscibility | – | – | C16-V2A2E4GIKVAV [IKVAV PA1]
5.6 ± 0.4 | immiscibility | – | – | C16-VAG2E4GIKVAV [IKVAV PA4]
2.6 ± 0.03 | immiscibility | 2.6 ± 0.003 | – | C16-G4E4GIKVAV [IKVAV PA5]

Substance | R2 [1, 3] [s⁻¹] | miscibility and hydrogel formation when mixed with FGF2 PA1 or FGF2 PA2 [2] | relaxation rate 1H-R2 of methylene protons on ε carbon of K residue in IKVAV [1] [s⁻¹] | R2 ([1]; T2 relaxation of K residue, +Ca2+) [s⁻¹]
C16-A2G2E4GIKVAV [IKVAV PA2] | 2.7 ± 0.1 | both miscible and could form hydrogels with similar mechanical properties | 2.7 ± 0.1 | 8.6 ± 0.5
